Data on 38 compounds can be found in US7135466B2 (Kirin Beer Kabushiki Kaisha, priority 1999, dated 2006).

Structures are written as SMILES. pIC50: −log10 of the molar value. Where two headings read alike, the source gives them in different places.

This assay has as its target T1, c-kit (Homo sapiens, UniProt P10721).
T1 construct: MO7e (human megakaryocytic leukemia cell line) which had been arrested for 20 hr; endogenous in cells; host or cells: MO7e human megakaryocytic leukemia cell line
Put plainly: Inhibitory activity against c-kit autophosphorylation (MO7e cells, h-SCF). The assay is classed as cell-based. To be noted: for pIC50: MO7e cells, read-out: c-kit IC50; for inhibition at 1 µM: Mo7e, at 1000 nM. Here is the method: Inhibitory Activity Against c-kit Autophosphorylation
MO7e (human megakaryocytic leukemia cell line) which had been arrested for 20 hr was seeded into 96 well plates at an amount of 2×10^5 per well. A solution of a test compound in DMSO was added, and a reaction was then allowed to proceed for one hr. Thereafter, the cells were stimulated by 50 ng/ml of h-SCF for 5 min, followed by replacement with lysate buffer to solubilize the cells.
Next, the solubilized cell sap was transferred to a 96-well plate with an anti-phosphotyrosine antibody (PY-20) previously immobilized thereon, and a reaction was allowed to proceed. Thereafter, the cells were reacted with an anti-c-kit antibody (c-19, Santa Cruz) as a primary antibody and were labelled with GAR (anti-rabbit IgG, horseradish peroxidase, Amersham) as a secondary antibody. Color development was then carried out in a peroxidase color development kit (Sumitomo Bakelite Co., Ltd.), and the absorbance was measured at a wavelength of 450 nm.

T1 sequence (P10721 26-976): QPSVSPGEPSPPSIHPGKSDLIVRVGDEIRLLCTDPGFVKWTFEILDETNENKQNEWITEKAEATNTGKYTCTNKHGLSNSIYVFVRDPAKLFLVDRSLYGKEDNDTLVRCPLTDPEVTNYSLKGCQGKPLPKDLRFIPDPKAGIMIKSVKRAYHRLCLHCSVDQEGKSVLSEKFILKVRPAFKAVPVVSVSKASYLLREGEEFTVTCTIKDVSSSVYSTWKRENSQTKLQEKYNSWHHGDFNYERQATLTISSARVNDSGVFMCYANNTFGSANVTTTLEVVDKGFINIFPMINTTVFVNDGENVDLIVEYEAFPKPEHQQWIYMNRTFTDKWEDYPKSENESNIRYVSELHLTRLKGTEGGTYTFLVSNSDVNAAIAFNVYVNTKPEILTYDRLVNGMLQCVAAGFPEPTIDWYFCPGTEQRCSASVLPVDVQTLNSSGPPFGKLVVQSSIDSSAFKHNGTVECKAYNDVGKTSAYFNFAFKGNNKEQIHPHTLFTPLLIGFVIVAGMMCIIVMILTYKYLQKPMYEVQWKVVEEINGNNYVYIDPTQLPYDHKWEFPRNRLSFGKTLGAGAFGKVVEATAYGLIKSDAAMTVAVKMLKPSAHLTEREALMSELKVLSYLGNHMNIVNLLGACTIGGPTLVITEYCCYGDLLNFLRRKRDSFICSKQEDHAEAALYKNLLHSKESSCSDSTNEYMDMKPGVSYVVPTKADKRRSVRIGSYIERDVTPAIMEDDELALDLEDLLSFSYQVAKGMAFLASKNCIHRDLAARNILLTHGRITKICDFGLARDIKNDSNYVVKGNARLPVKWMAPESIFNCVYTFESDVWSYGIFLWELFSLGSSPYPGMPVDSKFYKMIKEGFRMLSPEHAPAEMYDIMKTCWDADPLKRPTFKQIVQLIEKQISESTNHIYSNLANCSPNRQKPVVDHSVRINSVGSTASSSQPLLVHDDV

Take `COc1cc(Oc2ccnc3cc(OC)c(OC)cc23)ccc1NC(=O)NCCN1CCCCC1` [Example 681, N-{4-[(6,7-Dimethoxy-4-quinolyl)oxy]-2-methoxyphenyl}-N′-(2-piperidinoethyl)urea]: where the note is “50 ng/ml h-SCF”, the pIC50 is 6.57.
As to `COc1cc2nccc(Oc3ccc(NC(=S)NC(=O)Cc4ccccc4F)cc3)c2cc1OC` [Example 729, N-{4-[(6,7-Dimethoxy-4-quinolyl)oxy]phenyl}-N′-[2-(2-fluorophenyl)acetyl]thiourea], the pIC50 (50 ng/ml h-SCF) is 6.52.
As to `COc1ccccc1NC(=O)COc1ccc(Oc2ccnc3cc(OC)c(OC)cc23)cc1` [Example 776, N1-(2-Methoxyphenyl)-2-{4-[(6,7-dimethoxy-4-quinolyl)oxy]phenoxy}acetamide], the pIC50 (50 ng/ml h-SCF) was 6.41.
`COc1cccc(NC(=O)COc2ccc(Oc3ccnc4cc(OC)c(OC)cc34)cc2)c1` [Example 778, N1-(3-Methoxyphenyl)-2-{4-[(6,7-dimethoxy-4-quinolyl)oxy]phenoxy}acetamide]: the pIC50 (50 ng/ml h-SCF) was 7.08.
On to `COc1ccc(NC(=O)COc2ccc(Oc3ccnc4cc(OC)c(OC)cc34)cc2)cc1` [Example 780, N1-(4-Methoxyphenyl)-2-{4-[(6,7-dimethoxy-4-quinolyl)oxy]phenoxy}acetamide], for which the pIC50 (50 ng/ml h-SCF) is 7.32.
In the case of `COc1ccc(NCCOc2ccc(Oc3ccnc4cc(OC)c(OC)cc34)cc2)cc1` [Example 781, N-(2-{4-[(6,7-Dimethoxy-4-quinolyl)oxy]phenoxy}ethyl)-N-(4-methoxyphenyl)amine], under “50 ng/ml h-SCF”, the pIC50 was 6.87.
Consider `COc1cc2nccc(Oc3ccc(OCC(=O)Nc4ccccc4C)cc3)c2cc1OC` [Example 782, N1-(2-Methylphenyl)-2-{4-[(6,7-dimethoxy-4-quinolyl)oxy]phenoxy}acetamide], for which the negative logarithm of the IC50 (pIC50) (50 ng/ml h-SCF) was 6.44.
Turning to `COc1cc2nccc(Oc3ccc(OCCNc4ccccc4C)cc3)c2cc1OC` [Example 783, N-(2-{4-[(6,7-Dimethoxy-4-quinolyl)oxy]phenoxy}ethyl)-N-(2-methylphenyl)amine], for the setting “50 ng/ml h-SCF”, the pIC50 is 6.35.
As to `COc1cc2nccc(Oc3ccc(OCC(=O)Nc4cccc(C)c4)cc3)c2cc1OC` [Example 784, N1-(3-Methylphenyl)-2-{4-[(6,7-dimethoxy-4-quinolyl)oxy]phenoxy}acetamide], the pIC50 (50 ng/ml h-SCF) was 7.10.
For `COc1cc2nccc(Oc3ccc(OCCNc4cccc(C)c4)cc3)c2cc1OC` [Example 785, N-(2-{4-[(6,7-Dimethoxy-4-quinolyl)oxy]phenoxy}ethyl)-N-(3-methylphenyl)amine], the pIC50 (50 ng/ml h-SCF) was 7.15.
Consider `COc1cc2nccc(Oc3ccc(OCC(=O)Nc4ccc(C)cc4)cc3)c2cc1OC` [Example 786, N1-(4-Methylphenyl)-2-{4-[(6,7-dimethoxy-4-quinolyl)oxy]phenoxy}acetamide], for which the negative logarithm of the IC50 (pIC50) (50 ng/ml h-SCF) was 7.34.
Regarding `COc1cc2nccc(Oc3ccc(OCCNc4ccc(C)cc4)cc3)c2cc1OC` [Example 787, N-(2-{4-[(6,7-Dimethoxy-4-quinolyl)oxy]phenoxy}ethyl)-N-(4-methylphenyl)amine], the pIC50 (50 ng/ml h-SCF) is 7.43.
With `COc1cc2nccc(Oc3ccc(OCC(=O)Nc4cccc(Cl)c4)cc3)c2cc1OC` [Example 788, N1-(3-Chlorophenyl)-2-{4-[(6,7-dimethoxy-4-quinolyl)oxy]phenoxy}acetamide], the pIC50 (50 ng/ml h-SCF) is 6.91.
As for `COc1cc2nccc(Oc3ccc(OCC(=O)Nc4ccc(Cl)cc4)cc3)c2cc1OC` [Example 789, N1-(4-Chlorophenyl)-2-{4-[(6,7-dimethoxy-4-quinolyl)oxy]phenoxy}acetamide], for the setting “50 ng/ml h-SCF”, the pIC50 is 6.81.
With `COc1cc2ncnc(Oc3ccc(OCC(=O)N4CCCCC4)cc3)c2cc1OC` [Example 806, 2-{4-[(6,7-Dimethoxy-4-quinazolinyl)oxy]phenoxy}-1-piperidino-1-ethanone], for the setting “figure within parentheses in −( ) or >1000( )”, the inhibition at 1 µM worked out at 35%.
In the case of `COc1cccc(OCCSc2ccc(Oc3ccnc4cc(OC)c(OC)cc34)cc2)c1` [Example 812, 6,7-Dimethoxy-4-(4-{[2-(3-methoxyphenoxy)ethyl]sulfanyl}phenoxy)quinoline], the pIC50 (h-SCF stimulation) is 6.49.
For `COc1ccc(OCCSc2ccc(Oc3ccnc4cc(OC)c(OC)cc34)cc2)cc1` [Example 813, 6,7-Dimethoxy-4-(4-{[2-(4-methoxyphenoxy)ethyl]sulfanyl}phenoxy)quinoline], the negative-log IC50 (pIC50) (h-SCF stimulation) is 6.40.
With `COc1cc2nccc(Oc3ccc(SCCOc4ccc(C)cc4)cc3)c2cc1OC` [Example 814, 6,7-Dimethoxy-4-(4-{[2-(4-methylphenoxy)ethyl]sulfanyl}phenoxy)quinoline], the pIC50 (h-SCF stimulation) is 6.39.
Regarding `COc1cc2nccc(Oc3ccc(SCCOc4ccccc4C(C)C)cc3)c2cc1OC` [Example 815, 4-(4-{[2-(2-Isopropylphenoxy)ethyl]sulfanyl}phenoxy)-6,7-dimethoxyquinoline], the pIC50 (h-SCF stimulation) was 6.74.
As for `COc1cc2nccc(Oc3ccc(SCCOc4ccc(C(C)C)cc4)cc3)c2cc1OC` [Example 816, 4-(4-{[2-(4-Isopropylphenoxy)ethyl]sulfanyl}phenoxy)-6,7-dimethoxyquinoline], the pIC50 (h-SCF stimulation) is 6.91.
Take `COc1cc2nccc(Oc3ccc(SCCOc4ccccc4C)cc3)c2cc1OC` [Example 817, 6,7-Dimethoxy-4-(4-{[2-(2-methylphenoxy)ethyl]sulfanyl}phenoxy)quinoline]: the pIC50 (h-SCF stimulation) is 6.71.
With `COc1cc2nccc(Oc3ccc(SCCOc4ccc(Cl)cc4)cc3)c2cc1OC` [Example 818, 4-(4-{[2-(4-Chlorophenoxy)ethyl]sulfanyl}phenoxy)-6,7-dimethoxyquinoline], the negative-log IC50 (pIC50) (h-SCF stimulation) was 6.69.
On to `COc1cc2nccc(Oc3ccc(SCCOc4ccccc4Cl)cc3)c2cc1OC` [Example 819, 4-(4-{[2-(2-Chlorophenoxy)ethyl]sulfanyl}phenoxy)-6,7-dimethoxyquinoline], for which the pIC50 (h-SCF stimulation) was 6.67.
Turning to `COc1cc2nccc(Oc3ccc(SCCOc4cccc(Cl)c4)cc3)c2cc1OC` [Example 820, 4-(4-{[2-(3-Chlorophenoxy)ethyl]sufanyl}phenoxy)-6,7-dimethoxyquinoline], the pIC50 (h-SCF stimulation) is 6.73.
Same read-out and setting: as for `COc1cc2nccc(Oc3ccc(SCCOc4cccc(F)c4)cc3)c2cc1OC` [Example 821, 4-(4-{[2-(3-Fluorophenoxy)ethyl]sulfanyl}phenoxy)-6,7-dimethoxyquinoline], the figure is 6.74.
As to `COc1cc2nccc(Oc3ccc(SCCOc4ccccc4F)cc3)c2cc1OC` [Example 822], the pIC50 (h-SCF stimulation) was 6.35.
Regarding `COc1cc2nccc(Oc3ccc(SCCOc4cccc(C)c4)cc3)c2cc1OC` [Example 823, 6,7-Dimethoxy-4-(4-{[2-(3-methylphenoxy)ethyl]sulfanyl}phenoxy)quinoline], the pIC50 (h-SCF stimulation) is 6.63.
Consider `COc1cc2nccc(Oc3ccc(SCCOc4ccc(F)cc4)cc3)c2cc1OC` [Example 824, 4-(4-{[2-(4-Fluorophenoxy)ethyl]sulfanyl}phenoxy)-6,7-dimethoxyquinoline], for which the negative-log IC50 (pIC50) (h-SCF stimulation) is 6.57.
`COc1cc2nccc(Oc3ccc(SCCOc4ccc(Cl)cc4Cl)cc3)c2cc1OC` [Example 825, 4-(4-{[2-(2,4-Dichlorophenoxy)ethyl]sulfanyl}phenoxy)-6,7-dimethoxyquinoline]: the pIC50 (h-SCF stimulation) is 6.48.
Turning to `COc1cc2nccc(Oc3ccc(SCCOc4ccc(C)cc4C)cc3)c2cc1OC` [Example 826, 4-(4-{[2-(2,4-Dimethylphenoxy)ethyl]sulfanyl}phenoxy)-6,7-dimethoxyquinoline], the pIC50 (h-SCF stimulation) was 6.77.
As for `COc1cc2nccc(Oc3ccc(SCCOc4ccc(C)c(C)c4)cc3)c2cc1OC` [Example 827, 4-(4-{[2-(3,4-Dimethylphenoxy)ethyl]sulfanyl}phenoxy)-6,7-dimethoxyquinoline], the pIC50 (h-SCF stimulation) is 6.76.
Regarding `COc1cc2nccc(Oc3ccc(S(=O)(=O)CCOc4ccc(C)c(C)c4)cc3)c2cc1OC` [Example 833, 4-[(6,7-Dimethoxy-4-quinolyl)oxy]phenyl [2-(3,4-dimethylphenoxy)ethyl]sulfone], for the setting “figure in parentheses in −( )”, the inhibition at 1 µM came out at 26%.
As for `COc1cc2nccc(Oc3ccc(S(=O)(=O)CCOc4ccc(C(C)C)cc4)cc3)c2cc1OC` [Example 835, 4-[(6,7-Dimethoxy-4-quinolyl)oxy]phenyl [2-(4-isopropylphenoxy)ethyl]sulfone], the pIC50 (h-SCF stimulation) was 6.18.
As to `COc1cc2nccc(Oc3ccc(S(=O)(=O)CCOc4ccccc4C(C)C)cc3)c2cc1OC` [Example 836, 4-[(6,7-Dimethoxy-4-quinolyl)oxy]phenyl [2-(2-isopropylphenoxy)ethyl]sulfone], the inhibition at 1 µM (figure in parentheses in −( )) turned out to be 39%.
With `COc1cc2nccc(Oc3ccc([S+]([O-])CCOc4ccc(Cl)cc4Cl)cc3)c2cc1OC` (centres unmarked) [Example 840, [2-(2,4-Dichlorophenoxy)ethyl]{4-[(6,7-dimethoxy-4-quinolyl)oxy]phenyl} sulfoxide], the inhibition at 1 µM (figure in parentheses in −( )) was found to be 14%.
Consider `COc1cc2nccc(Oc3ccc(SCCCOc4cccc(C)c4)cc3)c2cc1OC` [Example 841, 6,7-Dimethoxy-4-(4-{[3-(3-methylphenoxy)propyl]sulfanyl}phenoxy)quinoline], for which the pIC50 (h-SCF stimulation) is 6.93.
Consider `COc1cc2nccc(Oc3ccc(SCCCOc4ccccc4F)cc3)c2cc1OC` [Example 842, 4-(4-{[3-(2-Fluorophenoxy)propyl]sulfanyl}phenoxy)-6,7-dimethoxyquinoline], for which the pIC50 (h-SCF stimulation) is 6.90.
Take `COc1cc2nccc(Oc3ccc(SCCCCOc4ccccc4F)cc3)c2cc1OC` [Example 843, 4-(4-{[4-(2-Fluorophenoxy)butyl]sulfanyl}phenoxy)-6,7-dimethoxyquinoline]: the pIC50 (h-SCF stimulation) was 6.58.
